PubChem BioAssay (NCI)
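Protocol summary: plate cells (96-well), add compound at 5 concentrations, incubate 48 h, interpolate endpoints linearly. At the GI50, growth is halved. TGI denotes the concentration required for complete inhibition of growth.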

Key:
Experiment in all cases: inhibition of tumour cell growth, NCI panel, 48 h
[1] = system: LOX IMVI melanoma
[2] = system: NCI-H460 lung
[3] = system: MDA-MB-231 breast
[4] = system: SNB-75 CNS
[5] = system: ACHN renal
[6] = system: HCT-15 colon
[7] = system: CAKI-1 renal
[8] = system: HOP-62 NSCLC

| Structure (SMILES) | GI50 [1] [µM] | TGI [1] [µM] | GI50 [2] [µM] | TGI [2] [µM] | GI50 [3] [µM] | TGI [3] [µM] | GI50 [4] [µM] | TGI [4] [µM] | GI50 [5] [µM] | TGI [5] [µM] | GI50 [6] [µM] | TGI [6] [µM] | GI50 [7] [µM] | TGI [7] [µM] | GI50 [8] [µM] | TGI [8] [µM] |
| --- | --- | --- | --- | --- | --- | --- | --- | --- | --- | --- | --- | --- | --- | --- | --- | --- |
| O=C(O)C1(Cc2cccc(Nc3nccs3)n2)CCC(Oc2cccc(Cl)c2F)CC1 (stereo unspecified) | 7.62 | 22.5 | 0.344 | 19.6 | 14.7 | 41.6 | 11 | 62.2 | 14.4 | > 100 | 3.34 | 25.2 | 12.4 | 38.8 | 6.77 | 56.2 |
| COc1cnc2c(c1)C(=O)c1c-2n(CCCN2CCCC2)c(=O)c2cc(F)ccc12 | 0.185 | 0.558 | 0.0603 | 0.3 | 0.926 | 2.96 | 0.327 | 5.44 | 0.155 | 0.461 | 0.283 | 1.98 | – | – | 0.212 | 0.687 |
| CCCCCCCC(=O)SCC/C=C/[C@@H]1CC(=O)NCc2nc(co2)C2=N[C@@](C)(CS2)C(=O)N[C@@H](C(C)C)C(=O)O1 | 0.0277 | 0.103 | 0.0137 | 8.55 | 0.054 | 8.13 | 0.0108 | > 50 | 0.0475 | 0.32 | 0.233 | > 20.4 | 0.125 | 0.394 | 0.0169 | – |
| N[C@@H]1CCCN(c2c(/C=C3\SC(=O)NC3=O)cccc2-c2ccccc2)C1 | 15.7 | 30.1 | 16.9 | 35.3 | 7.77 | 23.1 | 3.31 | 17.5 | 14.4 | 29.5 | 13.7 | 29.5 | 15 | 31.7 | 11.7 | 25.5 |
| CCCCC#CC#Cc1cccc(=O)o1 | 16.2 | 32.3 | 20.9 | > 100 | 19.5 | 43.2 | – | – | 14.6 | 28.7 | 20.2 | 39.5 | 22.5 | 60 | 18.1 | 34.4 |
| COc1ccc(-c2cc(-c3cc(OC)c(OC)c(OC)c3)c(C#N)c(N3CCOCC3)n2)cc1O | 0.238 | 11.7 | 1.07 | > 96.1 | 2.41 | > 93.3 | 2.2 | > 25.6 | 3.49 | > 100 | 1.89 | > 60.3 | 0.866 | > 100 | 33.2 | > 100 |
| CCCCCCCCCCCCOC1C(CNC(=O)C2OC3OC(C)(C)OC3C2NC(=O)CN2CCCCCC2)OC2OC(C)(C)OC21 (stereo unspecified) | 3.17 | 9.25 | 5.19 | 18.4 | 9.7 | 23 | 8.49 | 21.4 | 10.7 | 25.3 | 4.03 | 14.8 | 13 | 26.8 | 6.48 | 18.1 |
| COc1ccc2c(c1)[n+](=O)c(C(=O)/C=C/c1cc(OC)c(OC)c(OC)c1)c(C)n2[O-] | 16 | 47.6 | 23 | > 100 | 13.5 | 35.2 | 12 | 34.7 | 13.5 | 28.8 | 29.1 | > 100 | 26.9 | > 100 | 18.7 | 37.2 |
| CCN1C(=O)N(c2ccccc2)C2NN=c3s/c(=C4\C(=O)N(C(C)C)c5ccccc54)c(=O)n3C21 (stereo unspecified) | 2.17 | 11.2 | 1.16 | > 38.9 | 2.51 | 11.6 | 0.253 | 4.79 | 1.5 | > 57.9 | 0.733 | > 56.6 | 0.661 | 8.06 | 0.689 | 18.9 |
| C#Cc1cccc(Nc2nc3ccc([N+](=O)[O-])cc3nc2Nc2cccc(C#C)c2)c1 | 0.172 | 0.328 | 0.209 | 0.899 | 0.281 | 0.807 | 0.175 | 0.653 | 0.293 | 1.16 | 0.197 | 0.716 | 0.297 | 0.994 | 0.188 | 0.476 |
| CC(=O)OCC1O[C@@H]([S-])C(OC(C)=O)[C@H](OC(C)=O)[C@@H]1OC(C)=O.[Au+].c1ccc(CN2[CH-]N(Cc3ccccc3)C(c3ccccc3)=C2c2ccccc2)cc1 | 1.9 | 3.86 | – | – | – | – | 1.37 | 2.68 | 1.82 | 3.51 | 1.47 | 2.94 | 2 | 3.95 | – | – |
| C=C(C)[C@@H]1CC[C@]2(COC3CCCCO3)CC[C@]3(C)[C@H](CC[C@@H]4[C@@]5(C)C=C(C=O)C(=O)C(C)(C)[C@@H]5CC[C@]43C)[C@@H]12 (stereo partly specified) | 1.36 | 2.73 | 2.02 | 4.22 | 1.81 | 3.82 | – | – | 1.26 | 2.52 | 1.77 | 3.97 | 1.34 | 2.61 | 1.75 | 3.19 |
| CN(C[C@@H]1COCCO1)S(=O)(=O)Nc1ccc2ccc3ncc(-c4cnn(C)c4)cc3c(=O)c2c1 | 3.37 | > 100 | 4.26 | > 100 | 7.76 | > 100 | 1.6 | > 27.4 | 2.82 | > 100 | 3.64 | > 100 | 1.94 | > 27.4 | 10.9 | > 100 |
| c1ccc(COCC2OC3c4ccccc4COC3C2OCc2ccccc2)cc1 (stereo unspecified) | – | – | – | > 100 | – | – | – | > 100 | – | > 100 | – | > 100 | – | > 100 | – | – |
| CC(=O)[O-].O=C([CH-]C(=O)c1ccccc1)c1ccccc1.O=C([CH-]C(=O)c1ccccc1)c1ccccc1.[Y+3] | 4.95 | 23.4 | 2.69 | 18.4 | – | – | 3.1 | 7.42 | 5.52 | 22.9 | 5.45 | 26.7 | 4.53 | 19.4 | 2.31 | 13.4 |
| CCOC(=O)c1cc2c(n1Cc1ccccc1)-c1oncc1CC2 | 5.5 | 25.4 | 3.08 | 11.4 | 5.66 | 57.1 | 4.68 | > 100 | 5.84 | 89 | 3.58 | 56.2 | 3.24 | 18.8 | 5.3 | > 100 |

| Structure (SMILES) | GI50 [1] [µM] | TGI [1] [µM] | GI50 [2] [µM] | TGI [2] [µM] | GI50 [3] [µM] | TGI [3] [µM] | GI50 [4] [µM] | TGI [4] [µM] | GI50 [5] [µM] | TGI [5] [µM] | GI50 [6] [µM] | TGI [6] [µM] | GI50 [7] [µM] | TGI [7] [µM] | GI50 [8] [µM] | TGI [8] [µM] |
| --- | --- | --- | --- | --- | --- | --- | --- | --- | --- | --- | --- | --- | --- | --- | --- | --- |
| COc1ccc(-c2csc(-c3cc(Cl)cc(Cl)c3Cl)n2)cc1 | > 100 | > 100 | 46.5 | > 100 | 60 | > 100 | 40 | > 100 | > 100 | > 100 | 73.5 | > 100 | > 100 | > 100 | > 100 | > 100 |
| O=C1CCc2c(sc3[nH]c(=S)n(Cc4ccccc4)c(=O)c23)C1 | 3.38 | 12.5 | 3.64 | > 100 | 4.54 | > 100 | 2.34 | > 100 | 3.73 | > 100 | 2.78 | 13.8 | 2.54 | 8.31 | 3.84 | > 100 |
| CN(CCCl)c1ccc(/C=C/C2=[N+](C)c3ccccc3C2(C)C)cc1 | – | – | 0.679 | 10.6 | 0.579 | 5.59 | 1.2 | 6.91 | 2.19 | 10.6 | 6.3 | 21.7 | 17.5 | 43.6 | 1.07 | 10.9 |
| O=C1C(Cl)=C(Nc2cccc(O)c2)C(=O)N1c1ccccc1Cl | 20.1 | 52.6 | 41.2 | > 100 | 5.68 | 42.4 | – | – | > 100 | > 100 | 35.2 | > 100 | 40.3 | > 100 | 32.9 | > 100 |
| Cc1nc2n(c(=O)c1CCN1CCC(c3noc4cc(F)ccc34)CC1)CCCC2 | > 50 | > 50 | > 50 | > 50 | > 50 | > 50 | > 50 | > 50 | > 50 | > 50 | > 50 | > 50 | > 50 | > 50 | > 50 | > 50 |
| N#Cc1ccc(C(c2ccc(C#N)cc2)n2cncn2)cc1 | > 5000 | > 5000 | > 5000 | > 5000 | – | – | > 5000 | > 5000 | > 5000 | > 5000 | > 5000 | > 5000 | > 5000 | > 5000 | 915 | > 5000 |
| CCOC(=O)Nc1ccc(-c2nc(-c3cccc(OC)c3)c(-c3ccnc(Br)c3)[nH]2)cc1 | 1.56 | 3.32 | 2.79 | 8.41 | 3.27 | > 100 | 2.14 | > 100 | 2.62 | > 100 | 1.68 | 5.45 | – | – | – | – |
| CCC1CCc2nc3sc(C(=O)Nc4ccccc4C)c(N)c3cc2C1 (stereo unspecified) | 0.775 | > 100 | 0.627 | > 100 | > 100 | > 100 | 0.312 | > 100 | 0.835 | > 100 | 0.339 | > 100 | 0.451 | > 100 | 0.674 | > 100 |
| Cc1nc(N)sc1C(=O)Nc1cc(C(=O)NCCCN(C)C)n(C)c1 | > 100 | > 100 | > 100 | > 100 | > 100 | > 100 | > 100 | > 100 | > 100 | > 100 | > 100 | > 100 | > 100 | > 100 | > 100 | > 100 |
| CC(=O)[O][Hg][c]1ccccc1 | 0.227 | 0.696 | 0.934 | 3.82 | 0.732 | 2.09 | 0.771 | 2.2 | 1.23 | 2.61 | 0.277 | 0.877 | 0.964 | 2.89 | 1.62 | 3.11 |
| Nc1nnc(Cn2c(-c3ccccc3)nc3ccc(Br)cc3c2=O)s1 | 26.1 | > 100 | > 100 | > 100 | 36.2 | > 100 | > 100 | > 100 | 39 | > 100 | 31.6 | > 100 | 25.1 | > 100 | 36.8 | > 100 |
| CC(=O)OC1CC2C(C)(C)C(=O)C=CC2(C)C2CCC3(C)C(c4ccoc4)OC(=O)C4OC43C12C (stereo unspecified) | – | – | – | 16.1 | – | 14.1 | – | > 100 | – | > 100 | – | 35.4 | – | 31.1 | – | 87 |
| COc1ccc(Cn2cc3c(c2-c2cc(OC)c(OC)c(OC)c2)CCc2cnoc2-3)cc1[N+](=O)[O-] | 0.898 | > 100 | 0.721 | > 28.8 | 2.13 | > 41.2 | 0.849 | – | 2.88 | > 100 | 0.573 | > 100 | 0.747 | > 60.4 | 2.85 | > 100 |
| COc1ccc(C(=O)c2cc3c(N)c(C(=O)Nc4cccc(Cl)c4C)sc3nc2C)cc1 | 0.154 | > 25 | 0.0917 | > 25 | 0.142 | > 25 | – | – | 0.202 | > 25 | 0.101 | > 25 | 0.0995 | > 25 | 0.154 | > 25 |
| C=C1C(=O)O[C@H]2[C@H]1CC/C(COC(=O)c1ccc(C#N)cc1)=C\CC[C@@]1(C)O[C@@H]21 | 1.56 | 2.99 | 3.46 | 14.5 | 2.2 | 5.24 | 7.23 | 21.4 | 1.85 | 4.26 | 1.44 | 3.22 | – | – | 7.43 | 22.6 |
